# Source: patent US11040954B1, “CXCR3 receptor agonists” (RECEPTOS LLC, priority 2016, dated 2021)
# pEC50: −log10 of the molar value.
# Target: T1, CXCR3 (Homo sapiens, UniProt P49682)
# T1 construct: host or cells: CHO-K1 (cAMP Hunter CHOK1 CXCR3 Gi cell line)
# T1 sequence (P49682 1-368): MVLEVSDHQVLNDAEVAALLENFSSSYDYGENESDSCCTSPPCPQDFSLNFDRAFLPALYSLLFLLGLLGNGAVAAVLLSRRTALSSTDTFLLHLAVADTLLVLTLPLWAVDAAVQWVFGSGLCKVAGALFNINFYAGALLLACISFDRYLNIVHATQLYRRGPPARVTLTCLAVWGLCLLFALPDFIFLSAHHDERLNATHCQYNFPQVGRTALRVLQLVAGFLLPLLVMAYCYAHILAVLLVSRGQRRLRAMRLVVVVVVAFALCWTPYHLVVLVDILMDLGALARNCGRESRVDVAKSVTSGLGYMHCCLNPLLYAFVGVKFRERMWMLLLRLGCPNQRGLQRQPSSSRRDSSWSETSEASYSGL
# Assay: CXCR3 cAMP agonist assay (cAMP Hunter CHOK1 CXCR3 Gi cell line, forskolin-stimulated, HitHunter cAMP detection)
# Format: cell-based
# Details: cAMP Hunter CHOK1 CXCR3 Gi cells, 20 μM forskolin, 30 minutes; read-out: Activity (CXCR3 cAMP agonist assay compound EC50)
# Summary of the method: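 CHOK1 cells expressing human CXCR3 with Gi coupling, 50,000/well in suspension in HBSS/10 mM HEPES/0.1% BSA pH 7.4, were co-treated with 20 μM forskolin and compound (12-point, 0-10 μM, 1% DMSO) for 30 min. cAMP was read by enzyme-complementation luminescence; CXCL11 dose response set maximum efficacy.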
row,pEC50,SMILES
1,> 7.30,"CC1(C)CCCCN1C(=O)CCC(=O)N1Cc2ccc(F)cc2C[C@H]1C(=O)N[C@@H](CCN)C(=O)Nc1ccc(Cl)c(Cl)c1F [Compound 34-1, (S)—N—((S)-4-amino-1-((3,4-dichloro-2-fluorophenyl)amino)-1-oxobutan-2-yl)-2-(4-(2,2-dimethylpiperidin-1-yl)-4-oxobutanoyl)-6-fluoro-1,2,3,4-tetrahydroisoquinoline-3-carboxamide]"
2,< 6.30,Cc1cccc(Cl)c1NC(=O)[C@H](CCN)NC(=O)[C@@H]1Cc2ccccc2CN1C(=O)CCC(=O)c1ccccc1 [Compound 14-10]
3,> 7.30,NCC[C@H](NC(=O)[C@@H]1Cc2ccccc2CN1C(=O)CCC(=O)N1CCC(C(F)(F)F)C1)C(=O)Nc1ccc(Cl)c(Cl)c1F (stereo partly drawn) [Compound 15-47]
4,> 7.30,CN(C)[C@@H]1CCN(C(=O)CCC(=O)N2Cc3ccccc3C[C@H]2C(=O)N[C@@H](CCN)C(=O)Nc2ccc(Cl)c(Cl)c2F)C1 [Compound 15-31]
5,> 7.30,"CN(C)C(=N)NCCC[C@H](NC(=O)[C@@H]1Cc2ccccc2CN1C(=O)CCC(=O)c1ccccc1)C(=O)Nc1ccc(Cl)c(Cl)c1 [Compound 5-1, (S)—N—((S)-1-((3,4-dichlorophenyl)amino)-5-(3,3-dimethylguanidino)-1-oxopentan-2-yl)-2-(4-oxo-4-phenylbutanoyl)-1,2,3,4-tetrahydroisoquinoline-3-carboxamide]"
6,< 6.30,Cc1cc(NC(=O)[C@H](CCN)NC(=O)[C@H]2Cc3ccccc3CN2C(=O)CCC(=O)c2ccccc2)ncc1Cl [Compound 4-17]
7,> 7.30,Cc1cc(NC(=O)[C@H](CCN)NC(=O)[C@@H]2Cc3ccccc3CN2C(=O)CCC(=O)N2CCCC2C#N)ccc1Cl (stereo partly drawn) [Compound 12-77]
8,6.60 to 7.30,COc1c(NC(=O)[C@H](CCN)NC(=O)[C@@H]2Cc3ccccc3CN2C(=O)CCC(=O)c2ccccc2)ccc2c1CCC2 [Compound 2-58]
9,6.60 to 7.30,Cc1cccc(NC(=O)[C@H](CCCCN)NC(=O)[C@@H]2Cc3ccccc3CN2C(=O)CCC(=O)c2ccccc2)c1 [Compound 1-10]
10,> 7.30,CCNCC[C@H](NC(=O)[C@@H]1Cc2ccccc2CN1C(=O)CCC(=O)c1ccccc1)C(=O)Nc1ccc(Cl)c(C)c1 [Compound 8-4]
11,> 7.30,Cc1cc(NC(=O)[C@H](CCN)NC(=O)[C@@H]2Cc3ccccc3CN2C(=O)CCC(=O)c2ccccc2)c(I)cc1Cl [Compound 2-38]
12,> 7.30,"Cc1cc(NC(=O)[C@H](CCNCC(C)C)NC(=O)[C@@H]2Cc3ccccc3CN2C(=O)CCC(=O)c2ccccc2)ccc1Cl [Compound 8-1, (S)—N—((S)-1-((4-chloro-3-methylphenyl)amino)-4-(isobutylamino)-1-oxobutan-2-yl)-2-(4-oxo-4-phenylbutanoyl)-1,2,3,4-tetrahydroisoquinoline-3-carboxamide]"
13,> 7.30,CCC1CCCN(C(=O)CCC(=O)N2Cc3ccccc3C[C@H]2C(=O)N[C@@H](CCN)C(=O)Nc2ccc(Cl)c(C)c2)C1 (stereo partly drawn) [Compound 12-120]
14,6.30 to 6.60,COc1ccccc1NC(=O)[C@H](CCN)NC(=O)[C@@H]1Cc2ccccc2CN1C(=O)CCC(=O)c1ccccc1 [Compound 1-35]
15,6.30 to 6.60,Cc1cc(NC(=O)[C@H](CCC2CCN(C(=O)OC(C)(C)C)CC2)NC(=O)[C@@H]2Cc3ccccc3CN2C(=O)CCC(=O)c2ccccc2)ccc1Cl [Compound 17-2]
16,> 7.30,Cc1cccc(NC(=O)[C@H](CCN)NC(=O)[C@@H]2Cc3ccccc3CN2C(=O)CCC(=O)c2ccccc2)c1F [Compound 2-32]
17,> 7.30,Cc1cc(NC(=O)[C@H](CCN)NC(=O)[C@@H]2Cc3ccccc3CN2C(=O)CCC(=O)N2CCC[C@H]2C)ccc1Cl [Compound 12-46]
18,> 7.30,Cc1ccc(NC(=O)[C@H](CCCCN)NC(=O)[C@@H]2Cc3ccccc3CN2C(=O)CCC(=O)c2ccccc2)cc1C [Compound 1-29]
19,6.60 to 7.30,Cc1cc(NC(=O)[C@H](CCNCC(F)(F)F)NC(=O)[C@@H]2Cc3ccccc3CN2C(=O)CCC(=O)c2ccccc2)ccc1Cl [Compound 8-6]
20,6.30 to 6.60,Cc1cc(NC(=O)[C@H](CCN)NC(=O)[C@@H]2Cc3ccccc3CN2C(=O)CCC(=O)N2CC(Cc3ccccc3)C2)ccc1Cl [Compound 12-38]

row,pEC50,SMILES
1,6.30 to 6.60,COc1cc(F)c(F)cc1NC(=O)[C@H](CCN)NC(=O)[C@@H]1Cc2ccccc2CN1C(=O)CCC(=O)c1ccccc1 [Compound 2-70]
2,> 7.30,CC[C@H]1CN(C(=O)CCC(=O)N2Cc3ccccc3C[C@H]2C(=O)N[C@@H](CCN)C(=O)Nc2ccc(Cl)c(C)c2)CCN1C [Compound 12-150]
3,6.60 to 7.30,NCC[C@H](NC(=O)[C@@H]1Cc2ccccc2CN1C(=O)CCC(=O)c1ccccc1)C(=O)Nc1cc(Cl)cc(Cl)c1 [Compound 2-17]
4,< 6.30,CS(=O)(=O)C1CCN(C(=O)CCC(=O)N2Cc3ccccc3C[C@H]2C(=O)N[C@@H](CCN)C(=O)Nc2ccc(Cl)c(Cl)c2F)CC1 [Compound 15-13]
5,6.60 to 7.30,Cc1cc(NC(=O)[C@H](CCC(N)=O)NC(=O)[C@@H]2Cc3ccccc3CN2C(=O)CCC(=O)c2ccccc2)ccc1Cl [Compound 3-13]
6,6.60 to 7.30,NCC[C@H](NC(=O)[C@@H]1Cc2ccccc2CN1C(=O)CCC(=O)c1ccccc1)C(=O)Nc1ccc2c(c1)OCO2 [Compound 2-63]
7,> 7.30,Cc1cc(NC(=O)[C@H](CCN)NC(=O)[C@@H]2Cc3ccccc3CN2C(=O)CCC(=O)N2CC3CCC2C3)ccc1Cl (stereo partly drawn) [Compound 12-32]
8,6.30 to 6.60,NCC[C@H](NC(=O)[C@@H]1Cc2ccccc2CN1C(=O)CCC(=O)c1ccccc1)C(=O)Nc1cccc(-c2ccccc2)c1 [Compound 2-29]
9,> 7.30,NCC[C@H](NC(=O)[C@@H]1Cc2ccccc2CN1C(=O)CCC(=O)N1CCCCC12CCC2)C(=O)Nc1ccc(Cl)c(Cl)c1F [Compound 15-7]
10,> 7.30,NCC[C@H](NC(=O)[C@@H]1Cc2ccccc2CN1C(=O)CCC(=O)c1ccccc1)C(=O)Nc1cc2c(cc1F)CCC2 [Compound 2-78]
11,6.60 to 7.30,CN(C(=O)CCC(=O)N1Cc2ccccc2C[C@H]1C(=O)N[C@@H](CCN)C(=O)Nc1ccc(Cl)c(Cl)c1F)C1CCC1 [Compound 15-37]
12,6.60 to 7.30,COc1cc(C(F)(F)F)c(C)cc1NC(=O)[C@H](CCN)NC(=O)[C@@H]1Cc2ccccc2CN1C(=O)CCC(=O)c1ccccc1 [Compound 2-76]
13,6.30 to 6.60,NCC[C@H](NC(=O)[C@@H]1Cc2ccccc2CN1C(=O)CCC(=O)N1CCC2(CC1)CC(F)(F)C2)C(=O)Nc1ccc(Cl)c(Cl)c1F [Compound 15-24]
14,> 7.30,Cc1cc(NC(=O)[C@H](CCN)NC(=O)[C@@H]2Cc3ccccc3CN2C(=O)CCC(=O)N2CCCCCC2)ccc1Cl [Compound 12-13]
15,> 7.30,NCC[C@H](NC(=O)[C@@H]1Cc2ccccc2CN1C(=O)CCC(=O)N1CCC2CCCCC2C1)C(=O)Nc1ccc2c(c1)CCC2 (stereo partly drawn) [Compound 10-5]
16,> 7.30,COc1cc(C)c(Cl)cc1NC(=O)[C@H](CCN)NC(=O)[C@@H]1Cc2ccccc2CN1C(=O)CCC(=O)c1ccccc1 [Compound 1-36]
17,> 7.30,CC1(C)CCCN1C(=O)CCC(=O)N1Cc2cc(F)ccc2C[C@H]1C(=O)N[C@@H](CCN)C(=O)Nc1ccc(Cl)c(Cl)c1F [Compound 15-61]
18,6.30 to 6.60,NCC[C@@H](NC(=O)[C@@H]1Cc2ccccc2CN1C(=O)CCC(=O)c1ccccc1)C(=O)Nc1ccc(Cl)c(Cl)c1F [Compound 14-29]
19,6.60 to 7.30,O=C(CCC(=O)N1Cc2ccccc2C[C@H]1C(=O)N[C@@H](CCN1CC(F)(F)C1)C(=O)Nc1ccc2c(c1)CCC2)c1ccccc1 [Compound 23-6]
